# Data as given in US12257237B2 (priority 2017, dated 2025).
# Several values for one entry are separate records, joined by “and”; a condition that tells them apart may be missing. Identical values can stand only once.
# System: TC-71 Ewing sarcoma
# Assay: Antitumour activity in TC-71 Ewing sarcoma xenograft model
# Format: in vivo, Athymic nude mice
# Conditions: for optimal T/C: day 21; for mice still in CR at the end of the experiment: after second cycle
# Protocol: Experiments were performed with female Athymic nude mice, 9-10 weeks old obtained from Harlan Laboratories (Udine, Italy). They were maintained under Specific Pathogen Free conditions with constant temperature and humidity, according to the institutional guidelines.
# Tumour growth mice was monitored two/three times a week (depending on tumour growth rate, to avoid unnecessary stress to the animals) by Vernier caliper. Mice were sacrificed when tumour reached a mean weight of 2±0.5 gr. The antitumour activity will be expressed as T/C %, where T and C were the mean tumour weight of treated and control groups, respectively. Mice were monitored daily and weighted at least two times a week. Tolerability was evaluated on the basis of body weight loss (BWL) and clinical observation.
# Statistical analysis was performed with GraphPad Prism version 6.01 software (GraphPad software, Inc., La Jolla, CA, USA). ANOVA test was performed to evaluate if there were statistically significant differences between treated and control groups.
# 5×10^6 TC-71 cells were inoculated subcutaneously in the right flank of mice. The growing tumour masses were measured with the aid of a Vernier caliper, and the tumour weights (1 mm^3=1 mg) were calculated by the formula: length×(width) 2/2. When tumour load achieved about 100 mg, mice were randomized into the experimental groups and treatment started.
# [1] = EDO80: 80 mg/kg i.v. single dose, day 9 from inoculum
# [2] = EDO80: 80 mg/kg i.v. single dose, day 11 from inoculum
# [3] = EDO80: 80 mg/kg i.v. single dose, day 14 from inoculum
# [4] = EDO80: 80 mg/kg i.v. single dose, day 16 from inoculum
# [5] = EDO80: 80 mg/kg i.v. single dose, day 18 from inoculum
# [6] = EDO80: 80 mg/kg i.v. single dose, day 21 from inoculum
# [7] = EDO80: 80 mg/kg i.v. single dose, day 23 from inoculum
# [8] = EDO80: 80 mg/kg i.v. single dose, day 25 from inoculum
# [9] = EDO80: 80 mg/kg i.v. single dose, day 28 from inoculum
# [10] = EDO80: 80 mg/kg i.v. single dose, day 30 from inoculum
# [11] = EDO80: 80 mg/kg i.v. single dose, day 32 from inoculum
# [12] = EDO80: 80 mg/kg i.v. single dose, day 35 from inoculum
# [13] = EDO80: 80 mg/kg i.v. single dose, day 38 from inoculum
# [14] = EDO80: 80 mg/kg i.v. single dose, day 42 from inoculum
# [15] = EDO80: 80 mg/kg i.v. single dose, day 45 from inoculum
# [16] = EDO80: 80 mg/kg i.v. single dose, day 49 from inoculum
compound,measurement,setting,value
"Cn1c(CCCCCCC(=O)NO)nc2cc(N(CCCl)CCCl)ccc21 [EDO-S101, 7-(5-(bis(2-chloroethyl)amino)-1-methyl-1H-benzo[d]imidazol-2-yl)-N-hydroxyheptanamide]",optimal T/C,40 mg/kg i.v. q7dx3,24%
same,tumour regression,40 mg/kg q7dx3,no tumour regression in tumour volume was observed
same,effect of a second cycle of treatments on tumour re-growth,60 mg/kg,further delayed tumour re-growth without being able to arrest it
same,complete regressions (CR),60 mg/kg group,3 out of 8
same,tumour regression,60 mg/kg group,sustained tumour regressions in all of the treated mice
same,mice still in CR at the end of the experiment,60 mg/kg group,two
same,optimal T/C,60 mg/kg i.v. q7dx3,1%
same,effect of a second cycle of treatments on tumour re-growth,80 mg/kg,further delayed tumour re-growth without being able to arrest it
same,complete regressions (CR),80 mg/kg group,4 out of 8
same,tumour regression,80 mg/kg group,sustained tumour regressions in all of the treated mice
same,mice still in CR at the end of the experiment,80 mg/kg group,one
same,optimal T/C,80 mg/kg i.v. single dose,0.5%
same,"TC-71 tumour weight, mean","EDO40: 40 mg/kg i.v. q7dx3, day 9 from inoculum",103.5 mg
same,"TC-71 tumour weight, mean","EDO40: 40 mg/kg i.v. q7dx3, day 11 from inoculum",180.4 mg
same,"TC-71 tumour weight, mean","EDO40: 40 mg/kg i.v. q7dx3, day 14 from inoculum",180.6 mg
same,"TC-71 tumour weight, mean","EDO40: 40 mg/kg i.v. q7dx3, day 16 from inoculum",236.4 mg
same,"TC-71 tumour weight, mean","EDO40: 40 mg/kg i.v. q7dx3, day 18 from inoculum",319.3 mg
same,"TC-71 tumour weight, mean","EDO40: 40 mg/kg i.v. q7dx3, day 21 from inoculum",348.4 mg
same,"TC-71 tumour weight, mean","EDO40: 40 mg/kg i.v. q7dx3, day 23 from inoculum",514.5 mg
same,"TC-71 tumour weight, mean","EDO40: 40 mg/kg i.v. q7dx3, day 25 from inoculum",548.0 mg
same,"TC-71 tumour weight, mean","EDO40: 40 mg/kg i.v. q7dx3, day 28 from inoculum",733.8 mg
same,"TC-71 tumour weight, mean","EDO40: 40 mg/kg i.v. q7dx3, day 30 from inoculum",1055.5 mg
same,"TC-71 tumour weight, mean","EDO40: 40 mg/kg i.v. q7dx3, day 32 from inoculum",1376.1 mg
same,"TC-71 tumour weight, mean","EDO60: 60 mg/kg i.v. q7dx3, day 9 from inoculum",106.1 mg
same,"TC-71 tumour weight, mean","EDO60: 60 mg/kg i.v. q7dx3, day 11 from inoculum",130.4 mg
same,"TC-71 tumour weight, mean","EDO60: 60 mg/kg i.v. q7dx3, day 14 from inoculum",76.1 mg
same,"TC-71 tumour weight, mean","EDO60: 60 mg/kg i.v. q7dx3, day 16 from inoculum",39.2 mg
same,"TC-71 tumour weight, mean","EDO60: 60 mg/kg i.v. q7dx3, day 18 from inoculum",24.2 mg
same,"TC-71 tumour weight, mean","EDO60: 60 mg/kg i.v. q7dx3, day 21 from inoculum",14.1 mg
same,"TC-71 tumour weight, mean","EDO60: 60 mg/kg i.v. q7dx3, day 23 from inoculum",19.1 mg
same,"TC-71 tumour weight, mean","EDO60: 60 mg/kg i.v. q7dx3, day 25 from inoculum",23.2 mg
same,"TC-71 tumour weight, mean","EDO60: 60 mg/kg i.v. q7dx3, day 28 from inoculum",22.9 mg
same,"TC-71 tumour weight, mean","EDO60: 60 mg/kg i.v. q7dx3, day 30 from inoculum",43.7 mg
same,"TC-71 tumour weight, mean","EDO60: 60 mg/kg i.v. q7dx3, day 32 from inoculum",119.4 mg
same,"TC-71 tumour weight, mean","EDO60: 60 mg/kg i.v. q7dx3, day 35 from inoculum",155.1 mg
same,"TC-71 tumour weight, mean","EDO60: 60 mg/kg i.v. q7dx3, day 38 from inoculum",205.8 mg
same,"TC-71 tumour weight, mean","EDO60: 60 mg/kg i.v. q7dx3, day 42 from inoculum",396.7 mg
same,"TC-71 tumour weight, mean","EDO60: 60 mg/kg i.v. q7dx3, day 45 from inoculum",601.3 mg
same,"TC-71 tumour weight, mean","EDO60: 60 mg/kg i.v. q7dx3, day 49 from inoculum",642.0 mg
same,"TC-71 tumour weight, mean","EDO60: 60 mg/kg i.v. q7dx3, day 53 from inoculum",906.2 mg
same,"TC-71 tumour weight, mean","EDO60: 60 mg/kg i.v. q7dx3, day 56 from inoculum",1549.1 mg
same,"TC-71 tumour weight, individual mice",[1],222.4 mg and 133.9 mg and 113.7 mg and 97.0 mg and 83.4 mg and 80.5 mg and 57.3 mg and 45.5 mg
same,"TC-71 tumour weight, mean",[1],104.2 mg
same,"TC-71 tumour weight, individual mice",[2],369.7 mg and 200.9 mg and 133.4 mg and 118.7 mg and 55.8 mg and 65.3 mg and 49.8 mg and 45.0 mg
same,"TC-71 tumour weight, mean",[2],129.8 mg
same,"TC-71 tumour weight, individual mice",[3],209.5 mg and 68.4 mg and 34.6 mg and 32.5 mg and 24.2 mg and 15.6 mg and 17.0 mg
same,"TC-71 tumour weight, mean",[3],51.7 mg
same,"TC-71 tumour weight, individual mice",[4],124.6 mg and 34.0 mg and 11.8 mg and 8.0 mg and 5.9 mg and 3.2 mg and 6.8 mg
same,"TC-71 tumour weight, mean",[4],25.6 mg
same,"TC-71 tumour weight, individual mice",[5],68.6 mg and 8.3 mg and 7.4 mg and 3.1 mg and 4.3 mg and 7.1 mg and 2.3 mg and 4.9 mg
same,"TC-71 tumour weight, mean",[5],13.2 mg
same,"TC-71 tumour weight, individual mice",[6],23.4 mg and 3.4 mg and 5.3 mg and 1.0 mg and 2.5 mg and 5.4 mg
same,"TC-71 tumour weight, mean",[6],7.3 mg
same,"TC-71 tumour weight, individual mice",[7],16.8 mg and 2.1 mg and 8.6 mg and 35.1 mg and 2.4 mg and 1.2 mg
same,"TC-71 tumour weight, mean",[7],11.0 mg
same,"TC-71 tumour weight, individual mice",[8],38.4 mg and 3.8 mg and 14.0 mg and 74.0 mg and 4.1 mg
same,"TC-71 tumour weight, mean",[8],26.9 mg
same,"TC-71 tumour weight, individual mice",[9],117.5 mg and 4.1 mg and 59.4 mg and 203.9 mg
same,"TC-71 tumour weight, mean",[9],65.7 mg
same,"TC-71 tumour weight, individual mice",[10],220.0 mg and 18.1 mg and 185.0 mg and 415.0 mg and 12.8 mg
same,"TC-71 tumour weight, mean",[10],126.3 mg
same,"TC-71 tumour weight, individual mice",[11],340.2 mg and 64.8 mg and 238.3 mg and 594.3 mg and 37.0 mg
same,"TC-71 tumour weight, mean",[11],199.8 mg
same,"TC-71 tumour weight, individual mice",[12],319.1 mg and 49.1 mg and 343.5 mg and 692.9 mg and 34.3 mg
same,"TC-71 tumour weight, mean",[12],225.9 mg
same,"TC-71 tumour weight, individual mice",[13],239.8 mg and 32.6 mg and 310.8 mg and 670.0 mg and 56.6 mg
same,"TC-71 tumour weight, mean",[13],204.0 mg
same,"TC-71 tumour weight, individual mice",[14],598.5 mg and 77.8 mg and 1030.8 mg and 1865.6 mg and 237.5 mg
same,"TC-71 tumour weight, mean",[14],601.9 mg
same,"TC-71 tumour weight, individual mice",[15],790.9 mg and 209.0 mg and 1741.1 mg and 2763.5 mg and 370.1 mg
same,"TC-71 tumour weight, mean",[15],944.7 mg
same,"TC-71 tumour weight, individual mice",[16],1094.7 mg and 481.3 mg and 3462.7 mg and 4619.8 mg
same,"TC-71 tumour weight, mean",[16],1657.1 mg
